In ChEMBL document CHEMBL5113460, “Discovery of dual inhibitors of topoisomerase I and Cyclooxygenase-2 for colon cancer therapy” (Eur J Med Chem, 2022):
Calls of active or inactive are those of the source. No cut-off for these calls is given here.

Assays:
[1] = test system: HT-29; assay: Induction of apoptosis in human HT-29 cells assessed as increase in cleaved caspase-9 protein level at 2 to 8 uM incubated for 24 hrs by western blot analysis; format: functional, cell-based; settings: dose 2-8 µM
[2] = test system: RKO; assay: Induction of apoptosis in human RKO cells assessed as necrotic cells at 6 uM incubated for 24 hr by Annexin-V-FITC/PI staining based flow cytometry (Rvb= 0.30%); format: functional
[3] = AUC (0-t) in Sprague-Dawley rat at 30 mg/kg, po and measured upto 12 hrs by LC-MS analysis; format: ADME, organism-based; set-up: dose 30 mg/kg, time < 12 hrs, route po; settings: in vivo
[4] = test system: RKO; assay: Induction of apoptosis in human RKO cells assessed as increase in intracellular ROS level at 3 to 9 uM for 24 hrs by DCFH-DA staining-based flow cytometric analysis; format: functional, cell-based; settings: dose 3-9 µM
[5] = test system: RKO; assay: Induction of apoptosis in human RKO cells assessed as viable cells at 6 uM incubated for 24 hr by Annexin-V-FITC/PI staining based flow cytometry (Rvb= 87.9%); format: functional; settings: read-out: Activity
[6] = test system: HT-29; assay: Antitumor activity against human HT-29 cells xenografted in BALB/c mouse assessed as inhibition of tumor microvessel density by measuring CD31-index at 30 mg/kg, ip bid for 14 days by immunohistochemical analysis; format: functional; settings: time 14 day
[7] = Tmax in Sprague-Dawley rat at 100 mg/kg, po and measured upto 24 hrs by LC-MS analysis; format: ADME, organism-based; settings: in vivo
[8] = test system: HT-29; assay: Antitumor activity against human HT-29 cells xenografted in BALB/c mouse assessed as inhibition of tumor cell proliferation at 30 mg/kg, ip bid for 14 days by Ki67 staining based immunohistochemical analysis (Rvb= 16.61+/-1.05%); format: functional; set-up: scale not given: the % may be the effect or the level left; settings: time 14 day
[9] = test system: RKO; assay: Inhibition of NF-kappaB signalling pathway in human RKO cells assessed as decrease in phosphorylated IkappaB level at 3 to 9 uM incubated for 24 hrs by Western blot analysis; format: cell-based; settings: dose 3-9 µM
[10] = test system: RKO; assay: Induction of apoptosis in human RKO cells assessed as increase in cleaved caspase-9 protein level at 3 to 9 uM incubated for 24 hrs by western blot analysis; format: functional, cell-based; settings: dose 3-9 µM
[11] = test system: HT-29; assay: Antiproliferative activity against human HT-29 cells assessed as inhibition of cell proliferation incubated for 24 to 72 hrs by MTT assay; format: functional, cell-based; settings: time 24-72 hrs, DDE = dose-dependent effect
[12] = test system: HT-29; assay: Induction of apoptosis in human HT-29 cells assessed as necrotic cells at 2 uM incubated for 24 hr by Annexin-V-FITC/PI staining based flow cytometry (Rvb=1.67%); format: functional
[13] = test system: RKO; assay: Inhibition of NF-kappaB signalling pathway in human RKO cells assessed as decrease in phosphorylated NF-kappaB p65 level at 3 to 9 uM incubated for 24 hrs by Western blot analysis; format: cell-based; settings: dose 3-9 µM
[14] = test system: RKO; assay: Induction of cell cycle arrest in human RKO cells assessed as ratio of G1/G0 phase at 2 to 8 uM incubated for 24 hrs by flow cytometry (Rvb= 37.57%); format: functional; settings: dose 2-8 µM

Cc1c(Cl)cccc1Nc1ccccc1C(=O)Nc1ccc(N2CCNCC2)cc1
Activity [1]: Active | Activity [2]: 0.73% | AUC(0-t) at 12 h [3]: 5410 ng·h/mL | Activity [4]: Active | viability at 6 µM [5]: 81.9% | Inhibition_index [6]: 6 | Tmax [7]: 3.67 h | Activity [8]: 3.27% | inhibition [9]: Active | Activity [10]: Active | Activity [11]: Dde | Activity [12]: 1.49% | inhibition [13]: Active | Activity [14]: 76.99%
